Laboratory results as given in patent publication US11992467B2, “Promotion of lymphatic function” (Universitaet Basel, priority 2014, dated 2024).

How the values were obtained:
LEC = experiment: Sprouting assay (LEC-coated microcarriers in collagen); assay type: cell-based, human; conditions: 24 hours
Protocol: To investigate cell sprouting, cytodex microcarriers were coated with LECs (Schulz et al. (2012) Phenotype-based high-content chemical library screening identifies statins as inhibitors of in vivo lymphangiogenesis. Proc Natl Acad Sci USA 109, E2665-2674). Then, the microcarriers were embedded in a collagen solution and media containing 0.1% DMSO, 20 ng/ml VEGF-A, or different concentrations of the IG extract, its subfractions or iridals were added for 24 hours. The induced sprouts were imaged at 4× magnification (Molecular Devices ImageXpress Micro HCS microscope MD2, Photometrics CoolSNAP HQ camera, Photometrics, Tucson, AZ, USA). Image analysis was performed using ImageJ64 and the number of sprouts per microcarrier was counted and plotted. Three replicates per condition were performed.

A2780 = conditions: cited from earlier work
K562 = conditions: cited from earlier work
Plasmodium = conditions: cited from earlier work
fungi = conditions: cited from earlier work
lymphangiogenesis = conditions: experimental mouse lymphedema models; cited from earlier work
[1] = tested on: cytochrome P450 1A isoenzyme; conditions: cited from earlier work
[2] = tested on: guinea pig mesenteric lymphatic vessels; experiment: Ex vivo lymphatic contractility assay
Description: Guinea pigs (7-15 days of age) were killed by decapitation during deep anaesthesia induced by inhalation of isoflurane. The small intestine with its attached mesentery was rapidly dissected and placed in a physiological saline solution (PSS) of the following composition (mM): CaCl2, 2.5; KCl, 5; MgCl2, 2; NaCl, 120; NaHCO3, 25; NaH2PO4, 1; glucose, 11. The pH was maintained at 7.4 by constant bubbling with 95% O2/5% CO2. […]
The organ bath was then mounted on the stage of an inverted microscope and continuously superfused at a flow rate of 3 ml/min with PSS heated to 36° C. […] A custom-written MatLab program detected vessel diameter changes on the video image and recorded them as a function of time, allowing measurement of frequency and amplitude of contractions. Decreases in vessel diameter greater than 50% of the diastolic diameter were counted as contractions. Preparations were allowed a 30 min equilibration period prior to drug application during which pumping was assessed. […] A 5 min control period of contractile activity was recorded prior to a 1 to 5 min application of iripallidal and effects on vessel contraction frequency were assessed during the ten subsequent minutes.

Which “Minimal effective concentration in sprouting assay” value (“Minimal effective concentration” for short) (LEC) does the source give for Irigermanone here?
The value was 10 µM.

Which results are given for `CC(C)=CCC/C(C)=C/CC/C(C)=C/CC[C@@]1(C)[C@H](CCCO)/C(=C(/C)C=O)CC[C@]1(C)O` [Iridal]?
activity on human tumor cell line (A2780): interesting activity on two human tumor cell lines; activity on human tumor cell line (K562): interesting activity on two human tumor cell lines; antiplasmodial activity (Plasmodium): antiplasmodial activity; antifungal activity (fungi): no antifungal activity

With `C=C1CC[C@H](C)C(C)(C)[C@@H]1CC/C(C)=C/CC[C@@]1(C)[C@H](CCCO)/C(=C(/C)C=O)CC[C@]1(C)O` [γ-irigermanal] as the molecule, how does the “Minimal effective concentration” value (LEC) read?
Its value is 0.01 µM.

With `C=C1CC[C@H](C)C(C)(C)[C@@H]1/C=C/C(C)=C/CC[C@@]1(CO)[C@H](CCCO)/C(=C(/C)C=O)CC[C@]1(C)O` [Iriflorental] as the molecule, how does the “Minimal effective concentration” value (LEC) read?
Its value is 0.03 µM.

Which “Minimal effective concentration” value (LEC) does the source give for Cis isomer of α-dehydroirigermanal here?
Its value is 0.01 µM.

For `CC1=C(/C=C/C(C)=C\C=C\C(C)=C\C(=O)O)C(C)(C)CCC1` [9-cis retinoic acid], which lymphangiogenesis (lymphangiogenesis) is on record?
Its lymphangiogenesis is “promote lymphangiogenesis”.

For iriflogenin, which “inhibition of cytochrome P450 1A isoenzyme” value (from here on “inhibition”) [1] is on record?
The value was “potent inhibitors”.

Which “Minimal effective concentration” value (LEC) does the source give for `CC(C)=CCC/C(C)=C/CC(O)/C(C)=C/CC[C@@]1(C)[C@H](CCCO)/C(=C(\C)C=O)CC[C@]1(C)O` (some centres unmarked) [Iridobelamal A] here?
Its value is 3 µM.

For `O=c1c(-c2ccc(O)cc2)coc2cc3c(c(O)c12)OCO3` [irilone], which “inhibition” value [1] is on record?
Its value is “potent inhibitors”.

Which “inhibition” value [1] does the source give for `COc1cc(-c2coc3cc(O)c(OC)c(O)c3c2=O)cc(O)c1OC` [irigenin] here?
The value was “potent inhibitors”.

For `CC1=CC[C@H](C)C(C)(C)[C@@H]1/C=C/C(C)=C/CC[C@@]1(CO)[C@H](CCCO)/C(=C(/C)C=O)CC[C@]1(C)O` [Iripallidal], which “Minimal effective concentration” value (LEC) is on record?
The value was 0.03 µM.

And the “vessels with small, but significant increase in contraction frequency” value ([2]; 10 μM)?
The value was 5 out of 6.

What about the “vessels with small, but significant increase in contraction frequency” value ([2]; 30 μM (data not shown)) of the same molecule?
Its value is 4 out of 4.

With Irisgermanical C as the molecule, how does the “Minimal effective concentration” value (LEC) read?
Its value is 1 µM.
